Earlier results as cited in patent US20100113605A1 (priority 2007, published 2010).
Where two headings read alike, the source gives them in different places.

Assays:
rat striatal slices = conditions: for release of [^3H]dopamine from superfused rat striatal slices: low (10^−7M) and high (10^−5M) concentration; for Percentage increase in [^3H]dopamine release: mean ± SEM (n ≧ 4), NS = not significantly different from basal [^3H]dopamine overflow
DAT = DAT (Rattus norvegicus, UniProt P23977); conditions: for Site of action: 'Intraneuronal' cell continues 'via DAT'; for Pharmacodynamics of effect on synaptic [DA]: [DA] = dopamine concentration, cell wraps, ends with 'increases'; for Firing dependent effect on synaptic [DA]: in vivo
[1] = test system: extraneuronal dopamine concentrations in the nucleus accumbens
[2] = test system: extraneuronal dopamine in the nucleus accumbens; conditions: d-amphetamine 0.5 mg/kg s.c.; tetrodotoxin 1×10^−6M
[3] = test system: electrically-evoked levels of extracellular dopamine in the nucleus accumbens; conditions: 100 nmol icv, 1 day after injection
[4] = in vivo

Chain of DAT (P23977 whole entry): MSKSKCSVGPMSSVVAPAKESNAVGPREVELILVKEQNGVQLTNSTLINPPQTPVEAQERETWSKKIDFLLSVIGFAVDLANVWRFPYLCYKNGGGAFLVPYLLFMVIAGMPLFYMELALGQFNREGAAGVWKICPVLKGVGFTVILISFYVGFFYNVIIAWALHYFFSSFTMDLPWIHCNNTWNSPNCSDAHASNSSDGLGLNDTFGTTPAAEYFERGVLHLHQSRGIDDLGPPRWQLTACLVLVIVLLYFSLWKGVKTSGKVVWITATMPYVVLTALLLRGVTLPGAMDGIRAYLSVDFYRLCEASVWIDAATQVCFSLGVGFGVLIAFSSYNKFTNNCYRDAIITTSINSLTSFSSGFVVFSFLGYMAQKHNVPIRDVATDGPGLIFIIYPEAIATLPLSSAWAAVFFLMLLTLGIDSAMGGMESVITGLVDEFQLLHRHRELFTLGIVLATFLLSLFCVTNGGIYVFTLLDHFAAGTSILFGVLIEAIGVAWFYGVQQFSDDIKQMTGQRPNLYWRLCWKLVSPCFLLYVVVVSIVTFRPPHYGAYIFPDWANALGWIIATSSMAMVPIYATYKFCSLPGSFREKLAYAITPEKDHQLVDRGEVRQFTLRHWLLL

SMILES: CC(NC(C)(C)C)C(=O)c1cccc(Cl)c1 (centres unmarked) [Bupropion, bupropion]
- release of [^3H]dopamine from superfused rat striatal slices (rat striatal slices): did not release
- Site of action (DAT): Extraneuronal
- Pharmacodynamics of effect on synaptic [DA] (DAT): Gradual, moderate,
- Firing dependent effect on synaptic [DA] (DAT): Yes

SMILES: C[C@H](N)Cc1ccccc1 [d-Amphetamine, d-amphetamine]
- peak increase in extraneuronal dopamine concentration in the nucleus accumbens ([1]; 0.5 mg/kg ip): 242±89%
- peak increase in extraneuronal dopamine concentration in the nucleus accumbens ([1]; 1.5 mg/kg ip): 603±319%
- time of maximum increase in extraneuronal dopamine ([1]; both doses, 0.5 and 1.5 mg/kg ip): 40 min
- effect of tetrodotoxin in the dialysate on the drug-evoked increase in extraneuronal dopamine [2]: not altered
- Percentage increase in [^3H]dopamine release (rat striatal slices; 10^−5M): 138 ± 15 %
- Percentage increase in [^3H]dopamine release (rat striatal slices; 10^−7M): 56 ± 9 %
- release of [^3H]dopamine from superfused rat striatal slices (rat striatal slices): dose-dependently released

SMILES: CN1C2CCC1C(C(=O)OCc1ccc(N=C=S)cc1)C(c1ccc(Cl)cc1)C2.Cl (stereo not drawn) [RTI-76, 3β-(ρ-chlorophenyl)tropan-2α-carboxylic acid ρ-isothio-cyanatophenylmethyl ester hydrochloride]
- extracellular concentration of dopamine in the nucleus accumbens, electrically evoked [3]: increases the extracellular concentration of dopamine in the nucleus accumbens in a frequency-dependent manner

SMILES: COC(=O)C(c1ccccc1)C1CCCCN1 (racemic) [Methylphenidate, dl-threo-methylphenidate]
- Percentage increase in [^3H]dopamine release (rat striatal slices; 10^−5M): 24 ± 7 %
- Percentage increase in [^3H]dopamine release (rat striatal slices; 10^−5M, listed as methylphenidate): statistically significant increase
- Percentage increase in [^3H]dopamine release (rat striatal slices; 10^−7M): no stimulation
- Site of action (DAT): Extraneuronal
- Pharmacodynamics of effect on synaptic [DA] (DAT): Rapid, very large
- Firing dependent effect on synaptic [DA] (DAT): Yes
- Euphoriant/psychostimulant [4]: Yes

SMILES: CC(C)CC(N(C)C)C1(c2ccc(Cl)cc2)CCC1 (centres unmarked) [Sibutramine, sibutramine]
- increase in extraneuronal concentration of dopamine in the nucleus accumbens ([1]; 2.0 mg/kg ip, freely-moving rats): failed to reach statistical significance
- time of maximum increase in extraneuronal dopamine ([1]; 6.0 mg/kg ip): 60 min
- maximum increase in extraneuronal concentration of dopamine in the nucleus accumbens ([1]; 6.0 mg/kg ip, at 60 min, freely-moving rats, P<0.001): 231±87%
- release of [^3H]dopamine from superfused rat striatal slices (rat striatal slices): did not release
- Site of action (DAT): Extraneuronal
- Pharmacodynamics of effect on synaptic [DA] (DAT): Gradual, moderate,
- Firing dependent effect on synaptic [DA] (DAT): Yes
- Euphoriant/psychostimulant [4]: No

SMILES: CNC(CC(C)C)C1(c2ccc(Cl)cc2)CCC1 (centres unmarked) [BTS 54 354, N-{1-[1-(4-chlorophenyl)cyclobutyl]-3-methylbutyl}-N-methylamine]
- release of [^3H]dopamine from superfused rat striatal slices (rat striatal slices): did not release

SMILES: CNC(C)Cc1ccc2c(c1)OCO2 (centres unmarked) [MDMA, methylenedioxymethamphetamine]
- Site of action (DAT): Intraneuronal
- Pharmacodynamics of effect on synaptic [DA] (DAT): Rapid, very large
- Firing dependent effect on synaptic [DA] (DAT): No
- Euphoriant/psychostimulant [4]: Yes

SMILES: CC(C)CC(N)C1(c2ccc(Cl)cc2)CCC1 (centres unmarked) [BTS 54 505, 1-[1-(4-chlorophenyl)cyclobutyl]-3-methylbutylamine]
- release of [^3H]dopamine from superfused rat striatal slices (rat striatal slices): did not release

SMILES: CC(N)Cc1ccccc1 (centres unmarked) [Amphetamine]
- Site of action (DAT): Intraneuronal
- Pharmacodynamics of effect on synaptic [DA] (DAT): Rapid, very large
- Firing dependent effect on synaptic [DA] (DAT): No
- Euphoriant/psychostimulant [4]: Yes

SMILES: CN[C@@H](C)Cc1ccccc1 [Methamphetamine, methamphetamine]
- Percentage increase in [^3H]dopamine release (rat striatal slices; 10^−5M): 140 ± 10 %
- Percentage increase in [^3H]dopamine release (rat striatal slices; 10^−7M): 37 ± 10 %
- release of [^3H]dopamine from superfused rat striatal slices (rat striatal slices): dose-dependently released
- Site of action (DAT): Intraneuronal
- Pharmacodynamics of effect on synaptic [DA] (DAT): Rapid, very large
- Firing dependent effect on synaptic [DA] (DAT): No
- Euphoriant/psychostimulant [4]: Yes
